Assay: xn = mol fraction of the nth substance listed
Settings: Liquid; for mass density: Vibrating tube method

CCCO [propan-1-ol] + O
viscosity [mPa·s], Capillary tube (Ostwald / Ubbelohde) method
Settings	x1 = 0.1	x1 = 0.2	x1 = 0.3	x1 = 0.4	x1 = 0.6	x1 = 0.8	x1 = 1
523.2 K, 20000 kPa	0.131	0.129	0.122	0.121	0.117	0.114	0.115
523.2 K, 30000 kPa	0.138	0.139	0.134	0.134	0.132	0.13	0.134
523.2 K, 40000 kPa	0.138	0.146	0.145	0.146	0.146	0.146	0.15
573.2 K, 20000 kPa	0.088	0.082	0.076	0.073	0.07	0.071	0.073
573.2 K, 30000 kPa	0.092	0.09	0.085	0.084	0.082	0.083	0.085
573.2 K, 40000 kPa	0.098	0.098	0.096	0.094	0.095	0.097	0.098
618.2 K, 20000 kPa	0.056	0.042	0.04	0.042	0.047	0.052	0.057
618.2 K, 30000 kPa	0.077	0.07	0.066	0.065	0.066	0.07	0.073
618.2 K, 40000 kPa	0.086	0.082	0.079	0.079	0.08	0.084	0.087

mass density [kg/m3]
Settings	x1 = 0.1	x1 = 0.2	x1 = 0.3	x1 = 0.4	x1 = 0.6	x1 = 0.8	x1 = 1
523.2 K, 20000 kPa	733.5	682.3	648	624.3	596	582.1	575.3
523.2 K, 30000 kPa	749.8	702.6	672.3	651	626.2	613.3	606.8
523.2 K, 40000 kPa	761.7	718.6	689.7	670.3	647.5	635.6	629.3
573.2 K, 20000 kPa	637.8	576.7	538	513.7	492.5	489.6	494.3
573.2 K, 30000 kPa	664.2	614.7	583	564.2	545.3	540.2	540.6
573.2 K, 40000 kPa	685.8	640.9	613.2	596.3	578.8	572.6	572.1
618.2 K, 20000 kPa	430.7	324.4	311.8	325.6	360.4	393.7	419.4
618.2 K, 30000 kPa	557.7	504.6	479.5	469.8	469.3	480.8	491.7
618.2 K, 40000 kPa	603.6	561.4	539.6	529	523.2	528	534.1

O [water] + CO
viscosity [mPa·s], Pressure drop in straight capillary, x2 = 0
Settings	523.2 K	573.2 K	618.2 K
20000 kPa	0.11	0.09	0.072
30000 kPa	0.113	0.093	0.077
40000 kPa	0.115	0.096	0.081

mass density [kg/m3], x2 = 0
Settings	523.2 K	573.2 K	618.2 K
20000 kPa	816.1	734.8	619.7
30000 kPa	825.5	750.7	656.9
40000 kPa	834.3	764.4	682.3

Source: the NIST ThermoML archive (doi:10.1016/j.fluid.2017.09.005)
